Data as given in publication PMC7662397, “p-Cymene Complexes of Ruthenium(II) as Antitumor Agents” (Molecules, 2020).
Where two headings read alike, the source gives them in different places.

Legend:
HeLa cells [1] = assay: MTT cytotoxicity assay, HeLa cells, 48 h; assay type: cell-based, human; conditions: read-out: IC50 (μM) HeLa
Source text: (§1) Human cervical cancer cells (HeLa), human breast cancer cells (MCF-7) and green monkey kidney epithelial cells (BGM) were acquired from the American Type Culture Collection (ATCC, USA). The reason to choose human cervical cancer cells (HeLa) and human breast cancer cells (MCF-7) was to use a cell culture model that closely represented the human in vivo situation. The green monkey kidney epithelial cells (BGM) were chosen to compare cancer cells with healthy cells. Cell lines were maintained in Dulbecco’s Modified Eagle Medium (DMEM) with a low glucose content (1 g/L) supplemented with 10% (v/v) fetal bovine serum (FBS), 1 mM glutamax, 1% antibiotics (penicillin–streptomycin) and 1 mM pyruvate. In all cases, the cells were maintained at 37 °C in 5% CO2 atmosphere of 95% humidity. Cells were sub-cultured and the medium was changed once a week. In all cases, 0.25% trypsin, 0.25 mM ethylenediaminetetraacetic acid (EDTA) was used.
(§2) A total of 5 × 10^3 cells/well (200 µL of the culture medium described above) were seeded into a 96-well plate and incubated at 37 °C in a 5% CO2 and 95% humidity atmosphere for 24 h. […] Finally, a 200 µL aliquot of each of these last sixteen solutions was added to the wells. Cells were incubated at 37 °C for 48 h. The medium was then removed from the wells and 200 μL of MTT (3-(4,5-dimethylthiazol-2-yl)-2,5-diphenyltetrazolium bromide, 1 mg/mL final concentration) was added. After 4 h incubation in identical conditions, MTT was removed and 100 µL of dimethyl sulfoxide (DMSO) added. The absorbance at 560 nm was measured and recorded in a Fluostar Omega spectrophotometer.
(§3) Absorbances at each compound concentration were translated into inhibition percentages, I%, according to Equation (1):(1) I% = [1− AT/AC]×100 where AT and AC are the absorbance of treated and control cells, respectively.
(§4) The fitting was performed using GraphPad Prism v.8 software. All compounds were tested in three independent sets with triplicate points. The in vitro studies were performed in SACE (Support Service for Experimental Sciences, University of Murcia, Murcia, Spain) with biosecurity Level 2.

MCF-7 cells [2] = assay: MTT cytotoxicity assay, MCF-7 cells, 48 h; assay type: cell-based, human; conditions: read-out: IC50 (μM) MCF-7
Source text: as §1, §2, §3, §4

BGM cells [3] = assay: MTT cytotoxicity assay, BGM cells, 48 h; assay type: cell-based, green monkey; conditions: read-out: IC50 (μM) BGM
Source text: as §1, §2, §3, §4

MCF-7 cells [4] = conditions: cisplatin value from the literature; cited from earlier work
HeLa cells [5] = tested on: HeLa cells; set-up: method as in PMID 29880783; conditions: cisplatin value from the literature; cited from earlier work
BGM cells [6] = conditions: cisplatin value from the literature; cited from earlier work
[7] = human cervical cancer cells, 48 h exposure, MTT
[8] = MCF7, human breast cancer cells, 48 h exposure, MTT
[9] = Chlorocebus sabaeus, BGM, healthy green monkey kidney epithelial cells, 48 h exposure, MTT
[10] = human breast cancer cells, 48 h exposure, MTT
[11] = healthy green monkey kidney epithelial cells, 48 h exposure, MTT

SMILES: c1ccnnc1 [Pyridazine]
- IC50 (HeLa cells [1]; [7]): > 250 µM
- IC50 (MCF-7 cells [2]; [8]): > 250 µM
- IC50 (BGM cells [3]; [9]): > 250 µM

SMILES: N#Cc1ccncc1 [4-cyanopyridine]
- IC50 (HeLa cells [1]; Homo sapiens, 48 h): > 250 µM
- IC50 (MCF-7 cells [2]; Homo sapiens, MCF7, 48 h): > 250 µM
- IC50 (BGM cells [3]; Chlorocebus sabaeus, BGM, 48 h): > 250 µM

SMILES: Nc1ccccc1O [L = 2-aminophenol, 2-aminophenol]
- IC50 (HeLa cells [1]; [7]): > 250 µM
- IC50 (MCF-7 cells [2]; [8]): 131.3 ± 0.15 µM
- IC50 (BGM cells [3]; [9]): > 250 µM

SMILES: Cc1ccc(C(C)C)cc1.Nc1ccc(O)cc1.[Cl][Ru][Cl] [Complex III]
- IC50 (HeLa cells [1]; [7]): 171 ± 2.1 µM
- IC50 (MCF-7 cells [2]; [10]): 75.8 ± 2.3 µM
- IC50 (BGM cells [3]; [11]): 59.6 ± 1.9 µM

SMILES: Cc1ccc(C(C)C)cc1.N#Cc1ccncc1.[Cl][Ru][Cl] [Complex I]
- IC50 (HeLa cells [1]; [7]): > 250 µM
- IC50 (MCF-7 cells [2]; [10]): > 250 µM
- IC50 (BGM cells [3]; [11]): > 250 µM

SMILES: Cc1ccc(C(C)C)cc1.F[P-](F)(F)(F)(F)F.Nc1ccccc1O.Nc1ccccc1O.[Cl][Ru+] [Complex VI]
- IC50 (HeLa cells [1]; [7]): 57.6 ± 4 µM
- IC50 (MCF-7 cells [2]; [10]): 24.9 ± 4.3 µM
- IC50 (BGM cells [3]; [11]): 95 ± 1.7 µM

SMILES: Nc1ccc(O)cc1 [L = 4-aminophenol, 4-aminophenol]
- IC50 (HeLa cells [1]; [7]): > 250 µM
- IC50 (MCF-7 cells [2]; [8]): > 250 µM
- IC50 (BGM cells [3]; [9]): > 250 µM

SMILES: Cc1ccc(C(C)C)cc1.Nc1ccccc1O.[Cl][Ru][Cl] [Complex II]
- IC50 (HeLa cells [1]; [7]): 82.9 ± 0.67 µM
- IC50 (MCF-7 cells [2]; [10]): 28.7 ± 1.8 µM
- IC50 (BGM cells [3]; [11]): > 250 µM

SMILES: N.N.[Cl][Pt][Cl] [cisplatin]
- IC50 (MCF-7 cells [4]): 7.15 ± 0.1 µM
- IC50 (HeLa cells [5]): 67.6 ± 2 µM
- IC50 (BGM cells [6]): 5.45 ± 0.2 µM

SMILES: Cc1ccc(C(C)C)cc1.[Cl][Ru][Cl].c1ccnnc1 [Complex IV]
- IC50 (HeLa cells [1]; [7]): > 250 µM
- IC50 (MCF-7 cells [2]; [10]): > 250 µM
- IC50 (BGM cells [3]; [11]): > 250 µM
